This passage reports Activity results from ChEMBL document CHEMBL3124838, “Discovery of 6-aryl-azabenzimidazoles that inhibit the TBK1/IKK-ε kinases” (Bioorg Med Chem Lett, 2014).

Insulin-like growth factor 1 receptor (Homo sapiens), sequence (P08069 31-736 limits assumed): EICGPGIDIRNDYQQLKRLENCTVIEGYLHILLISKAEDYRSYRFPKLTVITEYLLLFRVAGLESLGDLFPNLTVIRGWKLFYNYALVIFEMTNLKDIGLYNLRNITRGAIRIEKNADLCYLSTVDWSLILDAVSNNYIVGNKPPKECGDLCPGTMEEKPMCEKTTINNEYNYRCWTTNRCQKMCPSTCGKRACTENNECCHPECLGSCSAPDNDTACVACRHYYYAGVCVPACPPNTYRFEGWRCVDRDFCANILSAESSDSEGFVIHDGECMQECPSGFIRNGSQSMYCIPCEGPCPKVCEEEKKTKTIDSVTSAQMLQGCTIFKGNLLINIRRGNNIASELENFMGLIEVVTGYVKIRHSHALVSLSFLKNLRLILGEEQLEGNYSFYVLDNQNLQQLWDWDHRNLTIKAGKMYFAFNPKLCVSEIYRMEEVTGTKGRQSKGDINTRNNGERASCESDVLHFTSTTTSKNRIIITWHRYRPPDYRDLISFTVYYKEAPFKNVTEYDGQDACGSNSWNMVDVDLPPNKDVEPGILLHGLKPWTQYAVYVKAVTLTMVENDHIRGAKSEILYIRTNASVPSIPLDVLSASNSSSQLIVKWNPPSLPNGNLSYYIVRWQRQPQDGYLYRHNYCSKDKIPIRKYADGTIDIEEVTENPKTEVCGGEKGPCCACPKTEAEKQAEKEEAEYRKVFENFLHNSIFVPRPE
Insulin-like growth factor 1 receptor (Homo sapiens), sequence (P08069 741-1367 limits assumed): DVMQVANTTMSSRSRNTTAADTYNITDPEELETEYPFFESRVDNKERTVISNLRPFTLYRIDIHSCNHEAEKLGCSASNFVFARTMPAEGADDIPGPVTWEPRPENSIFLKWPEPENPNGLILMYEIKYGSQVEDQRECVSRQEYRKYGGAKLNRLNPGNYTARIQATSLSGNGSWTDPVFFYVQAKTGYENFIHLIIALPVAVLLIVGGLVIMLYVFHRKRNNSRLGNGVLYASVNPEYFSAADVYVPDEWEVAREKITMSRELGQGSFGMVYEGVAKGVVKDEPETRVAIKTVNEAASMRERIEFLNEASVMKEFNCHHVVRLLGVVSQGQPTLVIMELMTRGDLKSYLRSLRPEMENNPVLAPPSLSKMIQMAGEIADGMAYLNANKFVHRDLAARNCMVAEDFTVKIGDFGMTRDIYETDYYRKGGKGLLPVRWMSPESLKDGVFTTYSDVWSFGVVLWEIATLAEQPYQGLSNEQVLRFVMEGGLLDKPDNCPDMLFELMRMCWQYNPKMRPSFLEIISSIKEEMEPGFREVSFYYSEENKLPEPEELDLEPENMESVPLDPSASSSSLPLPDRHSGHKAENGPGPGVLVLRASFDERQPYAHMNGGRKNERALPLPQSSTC
RAC-alpha serine/threonine-protein kinase (Homo sapiens), sequence (P31749 whole entry): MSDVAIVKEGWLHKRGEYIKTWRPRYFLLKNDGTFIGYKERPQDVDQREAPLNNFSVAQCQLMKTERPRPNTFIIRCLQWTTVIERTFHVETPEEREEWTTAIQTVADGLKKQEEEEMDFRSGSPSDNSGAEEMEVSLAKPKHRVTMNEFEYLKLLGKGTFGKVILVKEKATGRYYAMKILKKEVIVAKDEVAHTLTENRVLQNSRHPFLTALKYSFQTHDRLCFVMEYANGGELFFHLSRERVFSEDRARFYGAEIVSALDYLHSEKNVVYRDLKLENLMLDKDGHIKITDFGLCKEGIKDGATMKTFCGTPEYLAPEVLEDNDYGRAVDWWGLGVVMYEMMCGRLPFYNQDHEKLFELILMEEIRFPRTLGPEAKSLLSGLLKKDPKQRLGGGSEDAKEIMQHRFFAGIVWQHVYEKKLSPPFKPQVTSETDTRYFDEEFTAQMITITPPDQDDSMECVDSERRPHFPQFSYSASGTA
Calcium/calmodulin-dependent protein kinase type 1 (Homo sapiens), sequence (Q14012 whole entry, looked up): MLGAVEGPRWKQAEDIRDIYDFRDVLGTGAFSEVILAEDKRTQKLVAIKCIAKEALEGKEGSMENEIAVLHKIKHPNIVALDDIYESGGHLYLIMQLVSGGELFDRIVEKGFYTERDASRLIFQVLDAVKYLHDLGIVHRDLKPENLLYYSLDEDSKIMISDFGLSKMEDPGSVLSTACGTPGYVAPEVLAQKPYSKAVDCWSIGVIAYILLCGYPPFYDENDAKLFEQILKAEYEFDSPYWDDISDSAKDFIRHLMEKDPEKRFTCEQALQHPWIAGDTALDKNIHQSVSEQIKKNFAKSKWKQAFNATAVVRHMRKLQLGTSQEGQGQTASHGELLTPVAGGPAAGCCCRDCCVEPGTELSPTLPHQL

One assay addresses T1, Discoidin domain-containing receptor 2 (Homo sapiens) (UniProt Q16832).
T1 sequence (whole entry): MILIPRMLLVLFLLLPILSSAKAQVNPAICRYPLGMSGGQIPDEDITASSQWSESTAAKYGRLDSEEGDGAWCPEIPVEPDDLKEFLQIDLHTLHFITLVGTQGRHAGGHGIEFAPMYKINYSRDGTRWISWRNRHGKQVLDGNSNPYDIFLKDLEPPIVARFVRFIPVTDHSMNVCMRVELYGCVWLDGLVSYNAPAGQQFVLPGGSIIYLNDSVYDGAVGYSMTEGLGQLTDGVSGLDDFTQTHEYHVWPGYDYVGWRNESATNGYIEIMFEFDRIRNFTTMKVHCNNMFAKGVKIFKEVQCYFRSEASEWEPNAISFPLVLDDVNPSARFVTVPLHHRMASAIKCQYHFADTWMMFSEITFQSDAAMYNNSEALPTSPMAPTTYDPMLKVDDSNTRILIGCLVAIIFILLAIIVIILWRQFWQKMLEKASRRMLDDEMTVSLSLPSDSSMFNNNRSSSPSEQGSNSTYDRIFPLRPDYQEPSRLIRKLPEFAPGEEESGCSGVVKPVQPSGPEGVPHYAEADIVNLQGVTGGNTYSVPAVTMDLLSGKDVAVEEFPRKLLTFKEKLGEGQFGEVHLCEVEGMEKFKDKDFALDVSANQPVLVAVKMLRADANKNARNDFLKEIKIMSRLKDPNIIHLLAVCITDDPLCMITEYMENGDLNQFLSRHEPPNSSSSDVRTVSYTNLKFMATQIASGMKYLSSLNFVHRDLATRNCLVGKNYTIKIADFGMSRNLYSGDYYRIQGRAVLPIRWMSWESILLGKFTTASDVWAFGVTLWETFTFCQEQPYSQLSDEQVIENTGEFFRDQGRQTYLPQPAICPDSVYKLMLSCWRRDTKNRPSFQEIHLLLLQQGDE
As to the kind of experiment: Inhibition of human DDR2 assessed as residual activity at 1 uM relative to control.
On to `COc1ccc(-c2nc3cc(-c4csc(C(=O)NCCC(C)C)c4)cnc3[nH]2)cc1`, for which the Activity came out at 101%.
The same measure, in the same setting: as for `COc1ccc(-c2nc3cc(-c4csc(C(=O)NCC(C)(C)C)c4)cnc3[nH]2)cc1`, the figure is 100%; as for `COc1ccc(-c2nc3cc(-c4csc(C(=O)NCC(C)C)c4)cnc3[nH]2)cc1`, 101%.

The next assay addresses Calcium/calmodulin-dependent protein kinase type 1 (Homo sapiens) (UniProt Q14012). As to the kind of experiment: Inhibition of human CaMK1 assessed as residual activity at 1 uM relative to control.
Consider `COc1ccc(-c2nc3cc(-c4csc(C(=O)NCCC(C)C)c4)cnc3[nH]2)cc1`, for which the Activity was determined as 83%.
For the compound `COc1ccc(-c2nc3cc(-c4csc(C(=O)NCC(C)(C)C)c4)cnc3[nH]2)cc1`, the Activity came out at 97%.
Still for that read-out and setting: with `COc1ccc(-c2nc3cc(-c4csc(C(=O)NCC(C)C)c4)cnc3[nH]2)cc1` the figure was 102%.

The next assay deals with Serine/threonine-protein kinase PAK 5 (Homo sapiens) (UniProt Q9P286). As to the kind of experiment: Inhibition of human PAK5 assessed as residual activity at 1 uM relative to control.
Serine/threonine-protein kinase PAK 5 (Homo sapiens), sequence (Q9P286 whole entry, looked up): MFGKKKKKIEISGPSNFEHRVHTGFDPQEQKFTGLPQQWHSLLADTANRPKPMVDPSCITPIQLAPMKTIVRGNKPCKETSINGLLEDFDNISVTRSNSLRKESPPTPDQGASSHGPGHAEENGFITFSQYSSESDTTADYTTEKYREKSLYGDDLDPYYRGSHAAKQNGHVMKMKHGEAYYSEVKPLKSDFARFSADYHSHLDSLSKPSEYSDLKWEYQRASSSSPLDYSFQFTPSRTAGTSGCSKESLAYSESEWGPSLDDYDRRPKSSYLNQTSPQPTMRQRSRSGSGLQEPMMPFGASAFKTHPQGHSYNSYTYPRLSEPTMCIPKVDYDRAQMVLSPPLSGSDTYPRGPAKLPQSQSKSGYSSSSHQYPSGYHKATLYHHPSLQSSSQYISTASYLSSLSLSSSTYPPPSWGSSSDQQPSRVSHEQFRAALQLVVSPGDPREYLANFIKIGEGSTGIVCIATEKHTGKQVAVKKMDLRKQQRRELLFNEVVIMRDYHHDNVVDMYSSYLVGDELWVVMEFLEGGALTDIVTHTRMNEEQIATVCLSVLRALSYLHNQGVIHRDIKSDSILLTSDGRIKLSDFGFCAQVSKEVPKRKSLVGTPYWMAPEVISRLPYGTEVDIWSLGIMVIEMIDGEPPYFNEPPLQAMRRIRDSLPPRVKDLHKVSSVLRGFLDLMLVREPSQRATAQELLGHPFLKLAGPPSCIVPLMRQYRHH
On to `COc1ccc(-c2nc3cc(-c4csc(C(=O)NCCC(C)C)c4)cnc3[nH]2)cc1`, for which the Activity was 86%.
Still for that read-out and setting: as for `COc1ccc(-c2nc3cc(-c4csc(C(=O)NCC(C)(C)C)c4)cnc3[nH]2)cc1`, the figure is 94%; as for `COc1ccc(-c2nc3cc(-c4csc(C(=O)NCC(C)C)c4)cnc3[nH]2)cc1`, 97%.

The next assay deals with Serine/threonine-protein kinase PAK 4 (Homo sapiens) (UniProt O96013). As to the kind of experiment: Inhibition of human PAK4 assessed as residual activity at 1 uM relative to control.
Serine/threonine-protein kinase PAK 4 (Homo sapiens), sequence (O96013 whole entry, looked up): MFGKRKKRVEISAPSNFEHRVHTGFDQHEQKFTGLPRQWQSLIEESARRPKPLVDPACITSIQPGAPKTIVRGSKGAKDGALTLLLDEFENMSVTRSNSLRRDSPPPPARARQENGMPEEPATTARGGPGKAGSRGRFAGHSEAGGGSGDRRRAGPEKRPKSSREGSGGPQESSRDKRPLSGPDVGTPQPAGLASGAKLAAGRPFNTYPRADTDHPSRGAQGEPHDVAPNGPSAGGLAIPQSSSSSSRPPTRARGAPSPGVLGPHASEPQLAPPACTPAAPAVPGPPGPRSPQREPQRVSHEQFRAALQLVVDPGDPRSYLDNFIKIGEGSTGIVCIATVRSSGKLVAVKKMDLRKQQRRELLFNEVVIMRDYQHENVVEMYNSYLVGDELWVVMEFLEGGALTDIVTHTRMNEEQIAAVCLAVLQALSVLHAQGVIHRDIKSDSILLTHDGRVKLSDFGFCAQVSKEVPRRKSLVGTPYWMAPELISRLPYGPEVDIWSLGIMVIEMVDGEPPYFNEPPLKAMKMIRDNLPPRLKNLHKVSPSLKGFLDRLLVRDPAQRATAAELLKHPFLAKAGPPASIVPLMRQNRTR
On to `COc1ccc(-c2nc3cc(-c4csc(C(=O)NCCC(C)C)c4)cnc3[nH]2)cc1`, for which the Activity worked out at 83%.
Same read-out and setting: with `COc1ccc(-c2nc3cc(-c4csc(C(=O)NCC(C)(C)C)c4)cnc3[nH]2)cc1` the figure was 87%.
Still for that read-out and setting: as for `COc1ccc(-c2nc3cc(-c4csc(C(=O)NCC(C)C)c4)cnc3[nH]2)cc1`, the figure is 89%.

For the next assay, the target named is PI3-kinase p110-alpha/p85-alpha (Homo sapiens) (UniProt P27986+P42336). As to the kind of experiment: Inhibition of human PI3K p110alpha/p85alpha assessed as residual activity at 1 uM relative to control. The class given is protein-complex assay.
Take `COc1ccc(-c2nc3cc(-c4csc(C(=O)NCCC(C)C)c4)cnc3[nH]2)cc1`: the Activity was determined as 88%.
Same read-out and setting: as for `COc1ccc(-c2nc3cc(-c4csc(C(=O)NCC(C)(C)C)c4)cnc3[nH]2)cc1`, the figure is 86%.
Regarding `COc1ccc(-c2nc3cc(-c4csc(C(=O)NCC(C)C)c4)cnc3[nH]2)cc1`, the Activity is 91%.

The target in the next assay is T2, Activin receptor type-1B (Homo sapiens) (UniProt P36896).
T2 sequence (whole entry): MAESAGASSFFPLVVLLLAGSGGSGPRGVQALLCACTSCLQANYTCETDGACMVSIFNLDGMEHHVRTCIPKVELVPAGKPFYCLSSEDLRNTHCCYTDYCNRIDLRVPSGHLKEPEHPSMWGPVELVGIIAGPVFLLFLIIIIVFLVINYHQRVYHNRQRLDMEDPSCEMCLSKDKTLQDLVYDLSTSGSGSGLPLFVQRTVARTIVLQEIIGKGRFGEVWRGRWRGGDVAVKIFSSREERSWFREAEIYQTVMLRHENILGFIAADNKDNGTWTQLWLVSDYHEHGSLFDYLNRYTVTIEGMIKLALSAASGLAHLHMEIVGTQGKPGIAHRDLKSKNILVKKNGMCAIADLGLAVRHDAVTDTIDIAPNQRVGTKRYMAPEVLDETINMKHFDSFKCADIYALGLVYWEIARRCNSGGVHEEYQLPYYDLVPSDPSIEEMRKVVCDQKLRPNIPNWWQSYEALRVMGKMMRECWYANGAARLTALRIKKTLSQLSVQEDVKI
As to the kind of experiment: Inhibition of human ALK4 assessed as residual activity at 1 uM relative to control.
Consider `COc1ccc(-c2nc3cc(-c4csc(C(=O)NCCC(C)C)c4)cnc3[nH]2)cc1`, for which the Activity is 85%.
Turning to `COc1ccc(-c2nc3cc(-c4csc(C(=O)NCC(C)(C)C)c4)cnc3[nH]2)cc1`, the Activity was 85%.
Same read-out and setting: as for `COc1ccc(-c2nc3cc(-c4csc(C(=O)NCC(C)C)c4)cnc3[nH]2)cc1`, the figure is 96%.

For a further assay, the target named is Platelet-derived growth factor receptor beta (Homo sapiens) (UniProt P09619). The experiment in a line: Inhibition of human PDGFRbeta assessed as residual activity at 1 uM relative to control.
Platelet-derived growth factor receptor beta (Homo sapiens), sequence (P09619 whole entry): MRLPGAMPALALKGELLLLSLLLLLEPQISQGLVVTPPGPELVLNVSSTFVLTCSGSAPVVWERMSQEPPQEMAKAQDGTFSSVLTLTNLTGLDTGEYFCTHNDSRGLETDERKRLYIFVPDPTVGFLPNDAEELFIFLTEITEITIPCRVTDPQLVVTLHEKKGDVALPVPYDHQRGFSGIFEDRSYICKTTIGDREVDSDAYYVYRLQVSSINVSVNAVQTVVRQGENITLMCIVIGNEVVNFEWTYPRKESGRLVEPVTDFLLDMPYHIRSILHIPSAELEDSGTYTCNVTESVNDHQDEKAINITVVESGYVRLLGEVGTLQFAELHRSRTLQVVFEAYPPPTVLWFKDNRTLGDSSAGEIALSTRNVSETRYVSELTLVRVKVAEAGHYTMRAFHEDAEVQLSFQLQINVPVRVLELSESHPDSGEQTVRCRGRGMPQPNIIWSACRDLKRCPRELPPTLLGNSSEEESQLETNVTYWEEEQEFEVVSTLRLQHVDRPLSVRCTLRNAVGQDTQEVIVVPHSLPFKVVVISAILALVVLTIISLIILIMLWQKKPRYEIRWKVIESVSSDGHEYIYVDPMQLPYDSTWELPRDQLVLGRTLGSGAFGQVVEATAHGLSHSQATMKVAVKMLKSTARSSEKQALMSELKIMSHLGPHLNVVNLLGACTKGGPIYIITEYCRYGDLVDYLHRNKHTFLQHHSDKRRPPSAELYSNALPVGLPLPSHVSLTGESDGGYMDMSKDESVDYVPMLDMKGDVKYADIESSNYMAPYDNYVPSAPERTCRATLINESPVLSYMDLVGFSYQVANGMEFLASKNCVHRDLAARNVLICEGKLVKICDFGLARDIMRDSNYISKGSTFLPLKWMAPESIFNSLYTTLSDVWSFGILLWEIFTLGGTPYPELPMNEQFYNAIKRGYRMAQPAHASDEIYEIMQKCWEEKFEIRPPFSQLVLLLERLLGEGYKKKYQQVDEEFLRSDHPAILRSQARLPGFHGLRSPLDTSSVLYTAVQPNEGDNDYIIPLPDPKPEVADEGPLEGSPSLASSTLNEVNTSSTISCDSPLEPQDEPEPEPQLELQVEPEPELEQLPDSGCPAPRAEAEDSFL
As for `COc1ccc(-c2nc3cc(-c4csc(C(=O)NCCC(C)C)c4)cnc3[nH]2)cc1`, the Activity was determined as 70%.
Same read-out and setting: with `COc1ccc(-c2nc3cc(-c4csc(C(=O)NCC(C)(C)C)c4)cnc3[nH]2)cc1` the figure was 82%; with `COc1ccc(-c2nc3cc(-c4csc(C(=O)NCC(C)C)c4)cnc3[nH]2)cc1`, 64%.

Another assay addresses T3, Serine/threonine-protein kinase STK11 (Homo sapiens) (UniProt Q15831).
T3 sequence (whole entry): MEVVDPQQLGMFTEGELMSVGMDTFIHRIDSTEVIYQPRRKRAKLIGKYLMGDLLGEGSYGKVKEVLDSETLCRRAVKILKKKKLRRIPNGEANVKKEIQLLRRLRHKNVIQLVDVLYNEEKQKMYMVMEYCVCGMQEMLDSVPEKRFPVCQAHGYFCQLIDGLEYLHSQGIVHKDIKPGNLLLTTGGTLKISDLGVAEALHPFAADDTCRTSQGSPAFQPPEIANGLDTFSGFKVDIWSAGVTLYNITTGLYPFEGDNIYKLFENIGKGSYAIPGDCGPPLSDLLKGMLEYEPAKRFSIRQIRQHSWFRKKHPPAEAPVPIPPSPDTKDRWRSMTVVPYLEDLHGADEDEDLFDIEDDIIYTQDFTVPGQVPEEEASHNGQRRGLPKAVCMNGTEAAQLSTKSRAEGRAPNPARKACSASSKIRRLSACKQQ
The experiment in a line: Inhibition of human LKB1 assessed as residual activity at 1 uM relative to control.
On to `COc1ccc(-c2nc3cc(-c4csc(C(=O)NCCC(C)C)c4)cnc3[nH]2)cc1`, for which the Activity amounted to 97%.
Still for that read-out and setting: as for `COc1ccc(-c2nc3cc(-c4csc(C(=O)NCC(C)(C)C)c4)cnc3[nH]2)cc1`, the figure is 81%; as for `COc1ccc(-c2nc3cc(-c4csc(C(=O)NCC(C)C)c4)cnc3[nH]2)cc1`, 92%.

The next assay has as its target Insulin-like growth factor 1 receptor (Homo sapiens) (UniProt P08069). As to the kind of experiment: Inhibition of human activated IGF-1R assessed as residual activity at 1 uM relative to control.
In the case of `COc1ccc(-c2nc3cc(-c4csc(C(=O)NCCC(C)C)c4)cnc3[nH]2)cc1`, the Activity is 91%.
As to `COc1ccc(-c2nc3cc(-c4csc(C(=O)NCC(C)(C)C)c4)cnc3[nH]2)cc1`, the Activity is 80%.
The same measure, in the same setting: with `COc1ccc(-c2nc3cc(-c4csc(C(=O)NCC(C)C)c4)cnc3[nH]2)cc1` the figure was 95%.

A further assay has as its target Tyrosine-protein kinase Lyn (Homo sapiens) (UniProt P07948). As to the kind of experiment: Inhibition of human LYN assessed as residual activity at 1 uM relative to control.
Regarding `COc1ccc(-c2nc3cc(-c4csc(C(=O)NCCC(C)C)c4)cnc3[nH]2)cc1`, the Activity was 39%.
For `COc1ccc(-c2nc3cc(-c4csc(C(=O)NCC(C)(C)C)c4)cnc3[nH]2)cc1`, the Activity amounted to 61%.
Still for that read-out and setting: with `COc1ccc(-c2nc3cc(-c4csc(C(=O)NCC(C)C)c4)cnc3[nH]2)cc1` the figure was 46%.

A further assay concerns the target RAC-alpha serine/threonine-protein kinase (Homo sapiens) (UniProt P31749). The experiment in a line: Inhibition of human PKBalpha assessed as residual activity at 1 uM relative to control.
For `COc1ccc(-c2nc3cc(-c4csc(C(=O)NCCC(C)C)c4)cnc3[nH]2)cc1`, the Activity is 111%.
With `COc1ccc(-c2nc3cc(-c4csc(C(=O)NCC(C)(C)C)c4)cnc3[nH]2)cc1`, the Activity turned out to be 107%.
On the same count and under the same terms, as for `COc1ccc(-c2nc3cc(-c4csc(C(=O)NCC(C)C)c4)cnc3[nH]2)cc1`, the figure is 119%.

The target in the next assay is Tyrosine-protein kinase receptor UFO (Homo sapiens) (UniProt P30530). The experiment in a line: Inhibition of human AXL assessed as residual activity at 1 uM relative to control.
For `COc1ccc(-c2nc3cc(-c4csc(C(=O)NCCC(C)C)c4)cnc3[nH]2)cc1`, the Activity is 98%.
The same measure, in the same setting: with `COc1ccc(-c2nc3cc(-c4csc(C(=O)NCC(C)(C)C)c4)cnc3[nH]2)cc1` the figure was 103%; with `COc1ccc(-c2nc3cc(-c4csc(C(=O)NCC(C)C)c4)cnc3[nH]2)cc1`, 98%.
